According to patent US20200179296A1, “Accelerated Clearance of Biologic Therapeutics Using Click-Antidotes” (The Regents of the University of Colorado, a body corporate, priority 2018, published 2020):

Assays:
[1] = Size and zeta potential of the antidotes (Zetasizer Nano ZS), particle concentration; type: physicochemical
Source text: Synthesis of CLIO and CLIO NWs: CLIO NWs were synthesized from native 20 kDa dextran (Sigma) whereas CLIO were synthesized from reduced T-10 (10 k Da) dextran (Pharmacosmos). Dextran, Fe (III) chloride and Fe (II) chloride were mixed in DDW and titrated with ammonia using a modified Molday precipitation method. The ratio between dextran and iron salts determined the final size of the nanoparticles. Excess dextran was removed with ultrafiltration and the particles were crosslinked with epichlorohydrin as described. Excess epichlorohydrin was removed with ultrafiltration and particles were aminated by addition of ammonium hydroxide (CLIO NWs) or diaminohexane (CLIO) overnight at 4° C. […] Size and zeta potential were determined using Zetasizer Nano ZS (Malvern Instruments Ltd, Malvern, UK). […] The amino group content was determined by reaction with Cy7-NHS. […] The amount of the reacted dye was determined by the difference in the supernatant fluorescence between the reaction tube and control tube (no particles). The number of amines per nanoparticle was determined to be ˜100,000 per CLIO and CLIO NW.
BSA-TCO size and zeta potential are similar to those of native BSA values reported in literature. Particle concentration of BSA was determined based on Mw of 67 kDa; CLIO and CLIONW concentration was determined as described before. […]

IRDye 800CW-labeled IgG [2] = experiment: Organ distribution of IgG fluorescence in control and antidote-injected groups; type: in vivo, BALB/c mice; details: 48-72 h after antidote injection
Source text: Graphs show mean gray value of fluorescence scans, images show colored images in 800 nm channel. Organs were scanned in […]; each organ's image corresponds to the bar graph below; representative images are shown. The signal represents both circulating IgG and organ-deposited IgG. Brightness and contrast were adjusted to the same extent in control and treated groups of the same experiment. Due to scanner settings, antibody batch and time when the experiment was terminated, the grey values show differences between experiments. 2-way ANOVA test with multiple comparisons, n=3 mice per group. Means and SD of experimental replicates are shown
Female BALB/c mice 6-8 weeks old were used for the experiments and bred in house. […] The spot integrated density of a 16-bit TIFF image was measured with ImageJ and plotted as a function of time. The fluorescence of dots at initial time point was used as 100%. […] Mean fluorescence was determined from 16-bit images using ImageJ software by subtracting the background, drawing a ROI around the organs, and using a measure function to determine mean gray value.
To study the depletion in the peripheral organs, the main organs were scanned 48-72 h after the antidote injection with Li-COR Odyssey NIR scanner. The mean fluorescence reflects both the deposited IgG and the circulating IgG (either free or antidote-bound). […]

IRDye 800CW-labeled IgG [3] = experiment: In vivo depletion of blood IgG by click-modified antidotes; set-up: species or system BALB/c mice
Description: Blood IgG levels were measured at different time points, up to 72 h post injection. […] Black line is “IgG only”, green line is “IgG+antidote”. Time of IgG injection is “0” on the X-axis. The antidotes were injected at different times after IgG injection as marked by red arrows. First blood draw was at 1 h post-IgG injection (100%). The IgG only (control) group was included in every experiment. […] Two tailed t-test, n=3 mice per group.
(§1) Female BALB/c mice 6-8 weeks old were used for the experiments and bred in house. In order to determine circulation half-life of NIR-labeled antibodies and antidotes, 2 μL blood were collected at different time points through retroorbital vein or mandibular vein and were applied in duplicates on a 0.22 μm nitrocellulose membrane and scanned at 800 nm using Li-COR Odyssey. The spot integrated density of a 16-bit TIFF image was measured with ImageJ and plotted as a function of time. The fluorescence of dots at initial time point was used as 100%. For organ distribution, mice were euthanized at 48-72 h post injection and the organs were placed in wells on a 12-well plate. Organs were scanned with Li-COR Odyssey at 800 nm. Mean fluorescence was determined from 16-bit images using ImageJ software by subtracting the background, drawing a ROI around the organs, and using a measure function to determine mean gray value.
In order to test the depletion efficiency of the antidotes, female BALB/c mice were injected with 25 μg IRDye 800CW-labeled IgG followed by PBS (control) or the antidote, and the levels of IgG in blood (both antidote-bound and free) were measured at different times post-IgG injection (FIG. 2A). […] To test the ability of DSPE-PEG-MTZ to decrease total blood levels of IgG (both antidote bound and free), mice were injected with IRDye 800CW-IgG-TCO followed 1.5 h later with the lipid (1 mg, 1660-fold molar excess of MTZ groups). […] To test the depletion efficiency of BSA-TCO, we injected mice with 25 μg of IgG-MTZ followed by BSA-TCO at 2 h and 3 h post-IgG injection (500 μg each; ˜400 fold excess of TCO; 92-fold excess of surface-binding capacity). […] In view of the large excess of the injected lipid and BSA over IgG, it is unlikely that insufficient binding capacity is responsible for the observed difference in the depletion efficiency of these antidotes. To further investigate which factors contribute to the depletion efficiency, CLIO-TCO and CLIO NW-TCO were compared that have similar sizes but different blood half-lives (FIGS. 2E, 2F). […] It was also confirmed that CLIO-TCO specifically binds to IgG via click chemistry (FIG. 11B), which confirms that the observed decrease in IgG blood fluorescence was due to depletion.

[4] = Elimination profile and organ distribution of NIR-labeled antidotes after i.v. injection; type: in vivo; details: female BALB/c mice
Source text: FIGS. 1A-1F show the antidotes used in the study. […] The nanocarriers were modified with click groups (DSPE-PEG3400 with MTZ, BSA with TCO, CLIO NW and CLIO with TCO) as described in Methods. […] Crosslinked dextran shell is not visible. Size bar=50 nm. FIGS. 1C-1F show the elimination profile of the antidotes and organ distribution (NIR images). Labels are as follows: k-kidney, s-spleen, Iv-liver, i-intestine, lu-lung, h-heart). DSPE-PEG-MTZ, BSA-TCO and CLIO NW-TCO are long circulating particles, whereas CLIO-TCO are short circulating particles. […] N=3 mice per group.
as §1, with “For organ distribution, mice were euthanized at 48-72 h post injection and the organs were placed in wells on a 12-well plate. Organs were scanned with Li-COR Odyssey at 800 nm.” left out, “value. […]” for “value.”

BSA-TCO: bovine serum albumin conjugated with TCO-PEG4-NHS ester; macromolecule-based click antidote
Particles per mg ([1]; BSA based on Mw of 67 kDa): 9 × 10^12 per mg | Diameter ([1]; hydrodynamic diameter, intensity-weighted distribution): 8 nm | Effect on IgG fluorescence in the liver (IRDye 800CW-labeled IgG [2]): increased the liver fluorescence | Effect on IgG fluorescence in the organs (IRDye 800CW-labeled IgG [2]; Li-COR 800 nm): did not decrease the level of fluorescence in other organs | Decrease in blood level of IgG at 3 h post-IgG injection vs control (IRDye 800CW-labeled IgG [3]; 25 μg IgG-MTZ, BSA-TCO 500 μg at 2 h and 3 h, CLIO-TCO 290 μg at 1 h): 40% | Decrease in blood level of IgG at 24 h post IgG injection vs control (IRDye 800CW-labeled IgG [3]; 25 μg IgG, DSPE-PEG-MTZ 1 mg, BSA-TCO 2 x 500 μg, CLIO-TCO 290 μg): 53% | Decrease in AUC24 h of blood IgG vs control, 3 injections of antidote (IRDye 800CW-labeled IgG [3]; BSA-TCO 500 μg at 1.5, 3, 23 h, CLIO-TCO 150 μg at 2, 3, 4 h post-IgG): 38% | Decrease in AUC24 h of blood IgG vs control (IRDye 800CW-labeled IgG [3]; DSPE-PEG-MTZ 1 injection 1 mg, BSA-TCO 2 injections 500 μg each, CLIO-TCO 1 injection 290 μg): 41% | Organ accumulation of the antidote ([4]; NIR organ images): significant accumulation in the lungs | Elimination half-life (slow phase) ([4]; i.v., blood): 4 h
